The text below walks through data of paper PMC5244392, “Interspecies cathelicidin comparison reveals divergence in antimicrobial activity, TLR modulation, chemokine induction and regulation of phagocytosis” (Scientific Reports, 2017).

Common to all, as to format: cell-based, murine
Experiment [1] has as its system CCL2 (MCP-1) release by RAW264.7 cells. Nature of the experiment: Cathelicidin induced CCL2 release. The settings on record: for Summary class, chemokines CCL2 (2 h): 2 h stimulation, − = no significant effect, N = 3. The procedure:
(§1) E. coli O78 (Zoetis Animal Health, Kalamazoo, MI, USA), E. coli ATCC 25922, Staphylococcus aureus ATCC 29213, and methicillin resistant Staphylococcus aureus (MRSA) (WKZ-2, human clinical isolate) were grown overnight from a glycerol stock in Mueller Hinton Broth (MHB) (Becton Dickinson, USA). Before use, bacteria were grown to mid-log phase in MHB for 2 hours at 37 °C, 200 RPM. Murine RAW264.7 macrophages (ATCC-TIB-71) were obtained from the American Type Culture Collection (ATCC, Manassas, VA, USA) and cultured in DMEM (41966-029; Thermo Fisher Scientific, Waltham, MA, USA) supplemented with 10% FCS (Bodinco B.V., Alkmaar, the Netherlands) (DMEM + FCS) at 37 °C, 5.0% CO2. Cells were seeded in 96-wells plates at 5 × 10^5 cells/ml or 12-wells plates at 2 × 10^5/ml for adherence overnight prior to stimulation.
(§2) ELISA Duoset kits for mouse TNFα, CCL5, CXCL10 and IL-10 were obtained from R&D systems (Minneapolis, MN, USA) and ELISAs were performed according to the manufacturer’s protocol. Samples were stored at −20 °C until analysis and, if needed, diluted in 1% BSA in PBS, pH 7.4. Absorbance at 450 nm was determined in a FLUOstar Omega microplate reader (BMG Labtech GmbH) and corrected for absorbance at 570 nm. Results were analyzed with MARS data analysis software (BMG Labtech GmbH).
(§3) Since cathelicidins have membrane-perturbing properties which might affect the host’s cell membrane, first the possible cytotoxicity of the cathelicidins to RAW264.7 cells was assessed. […] Next, RAW264.7 cells were stimulated with the cathelicidins at various concentrations for 2 h and 24 h, after which release of CCL2 (MCP-1), CCL5 (RANTES), CXCL10 (IP-10), TNFα and IL-10 was determined.
(§4) Figure 2 Cathelicidin induced chemokine and cytokine release by RAW264.7 cells. RAW264.7 cells were incubated for 2 h and 24 h with cathelicidins (0.08 μM, 0.31 μM, 1.25 μM, 5 μM, and 20 μM), after which the supernatants were harvested and tested for release of CCL2 at 2 h (A) and 24 h (B), CCL5 at 24 h (C) and CXCL10 at 24 h (D). Dotted line represents average cytokine release of control samples. Results are presented as average +/− SEM (N = 3). Statistical differences were determined by Two-way ANOVA with Bonferroni post-hoc test.

The test system of experiment [2] is LTA-induced TLR-2 activation of RAW264.7 cells. As to the kind of experiment: LTA neutralization: LTA-induced TNFα release. The settings on record: peptide 0.08-20 μM; for Summary class, TLR activation LTA: 1 μg/ml LTA S. aureus, TNFα after 2 h, − = no significant effect, N = 3; for LTA neutralization / inhibition of LTA-induced activation, in words: 1 μg/ml S. aureus LTA, 2 h, TNFα.
Text: (§5) TLR ligands: LPS Escherichia coli (E. coli) O111:B4 (TLR-4), LTA S. aureus (TLR-2), and ODN-1826 (TLR-9) were obtained from Invivogen (Toulouse, France). Chicken CATH-2 (chCATH-2) and PMAP-36 were synthesized by Fmoc-chemistry at China Peptides (CPC scientific, Sunnycale, CA) and all other cathelicidins were synthesized by Fmoc-chemistry at the Academic Centre for Dentistry Amsterdam (Amsterdam, The Netherlands) (Table 1). Purity of all peptides was >95% as analyzed by HPLC-MS.
(§6) RAW264.7 cells were stimulated with 100 ng/ml LPS E. coli O111:B4, 1 μg/ml LTA S. aureus or 2.5 nM ODN-1826 in the presence of various concentrations of different cathelicidins. TNFα release was determined after 2 h for LPS and LTA stimulation and 24 h for ODN-1826 stimulation. CXCL10, CCL5 and IL-10 release were all determined after 24 h stimulation. As a control, RAW264.7 cells were stimulated for 2 h with 10^6 CFU/ml live or heat-killed (70 °C, 0.5 h) E. coli O78, followed by a double wash with cell culture medium and subsequent 22 h incubation in cell culture medium supplemented with 250 μg/ml gentamicin.
as §2
RAW264.7 cells were stimulated for 2 h with 100 ng/ml LPS from E. coli O111:B4 in the presence of different cathelicidins at various concentrations to study the capability of LPS neutralization (Fig. 3A). […] Next, RAW264.7 cells were stimulated with 1 μg/ml S. aureus LTA for 2 h in the presence of various cathelicidin concentrations, to test LTA neutralization (Fig. 3B).
(§7) Figure 3 Effects of cathelicidins on TLR-2, -4, and -9 activation. LPS (100 ng/ml) (A), LTA (1 μg/ml) (B) or ODN-1826 (2.5 nM) (C) was mixed with different cathelicidins (0.08 μM, 0.31 μM, 1.25 μM, 5 μM, and 20 μM) before addition to the RAW264.7 cells. Supernatants were collected after 2 hours (A,B) or 24 hours (C) incubation and TNFα expression was measured. The dotted line represents the average cytokine release of control samples. Results are presented as average +/− SEM (N = 3). Statistical differences were determined by Two-way ANOVA with Bonferroni post-hoc test.

Experiment [3] relates to CXCL10 (IP-10) release by RAW264.7 cells. As to the kind of experiment: Cathelicidin induced CXCL10 release. To be noted: for Increase of CXCL10 secretion after 24 h stimulation: 20 μM peptide; for Summary class, chemokines CXCL10 (24 h): 24 h stimulation, peptide 0.08-20 μM, − = no significant effect, N = 3. As to the method:
as §1, §6, §2, §3, §4

Experiment [4] relates to DNA-induced TLR-9 activation of RAW264.7 cells. Nature of the experiment: Enhancement of DNA (ODN-1826)-induced TNFα release. To be noted: 2.5 nM ODN-1826, TNFα after 24 h; for Enhancement of DNA-induced TLR-9 activation, in words: 20 μM for the named peptides; for Summary class, TLR activation DNA: peptide 0.08-20 μM, − = no significant effect, N = 3.
Text: as §5, §6, §2, §7
All other peptides had no effect on the DNA-induced TLR-9 activation. To ensure that the increase of TNFα secretion was indeed enhancement of DNA-induced activation and not a result of direct induction by cathelicidins, TNFα release was determined after 24 h cathelicidin stimulation (see Supplementary Fig. S2D). None of the cathelicidins induced TNFα release after 24 h, (if anything, most cathelicidins caused a small reduction of TNFα secretion) indicating the increased activation is indeed enhancement of DNA-induced activation.

In experiment [5] the test system is CCL5 (RANTES) release by RAW264.7 cells. Nature of the experiment: Cathelicidin induced CCL5 release. The settings on record: for Induction of CCL5 secretion after 24 h stimulation: 20 μM peptide; for Summary class, chemokines CCL5 (24 h): 24 h stimulation, peptide 0.08-20 μM, − = no significant effect, N = 3. As to the method:
as §1, §6, §2, §3
Figure 2 Cathelicidin induced chemokine and cytokine release by RAW264.7 cells. RAW264.7 cells were incubated for 2 h and 24 h with cathelicidins (0.08 μM, 0.31 μM, 1.25 μM, 5 μM, and 20 μM), after which the supernatants were harvested and tested for release of CCL2 at 2 h (A) and 24 h (B), CCL5 at 24 h (C) and CXCL10 at 24 h (D). Dotted line represents average cytokine release of control samples. […] Statistical differences were determined by Two-way ANOVA with Bonferroni post-hoc test.

As to “RVKRFWPLVPVAINTVAAGINLYKAIRRK [chCATH-3, chicken CATH-3, 29 residues, charge +7]”, the “Enhancement of CCL2 secretion after 2 h stimulation” value (from here on “Enhancement of CCL2 secretion”) in experiment [1] (5 μM peptide) and in experiment [1] (20 μM peptide) was 3–4 fold throughout. Moreover, the “Summary class, chemokines CCL2 (2 h)” value in experiment [1] (peptide 0.08-20 μM) was “↑↑ (↑↑ = significant increase ≤5 μM)”.
On to “Ac-GRFRRLRKKTRKRLKKIGKVLKWIPPIVGSIPLGCG [PMAP-36, porcine α-helical cathelicidin, N-acetylated, 36 residues, charge +13]”, for which, in experiment [1] (5 μM peptide), the “Enhancement of CCL2 secretion” value was 3–4 fold.
In the case of “GLLRKGGEKIGEKLKKIGQKIKNFFQKLVPQPEQ [CRAMP, murine cathelicidin, 34 residues, charge +6]”, the “Summary class, TLR activation LTA” value in experiment [2] was “↓ (↓ = significant decrease at 20 μM)”. Further, in experiment [3], the “Increase of CXCL10 secretion after 24 h stimulation” value (from here on “Increase of CXCL10 secretion”) is given as 2–3 fold and the “Summary class, chemokines CXCL10 (24 h)” value was “↑ (↑ = significant increase at 20 μM)”.
Consider “RIIDLLWRVRRPQKPKFVTVWVR [PMAP-23, porcine α-helical cathelicidin, 23 residues, charge +6]”, for which the “Summary class, TLR activation LTA” value in experiment [2] is “↓ (↓ = significant decrease at 20 μM)”. For the same substance, in experiment [4], the “Enhancement of DNA-induced TLR-9 activation, in words” value (shortened to “Enhancement … in words”) is “able to enhance DNA-induced TLR-9 activation” and the “Summary class, TLR activation DNA” value is “↑ (↑ = significant increase at 20 μM)”.
As to “RFGRFLRKIRRFRPKVTITIQGSARF-NH2 [chCATH-2, chicken CATH-2, C-terminal amide, 26 residues, charge +9]”, in experiment [2], the “Summary class, TLR activation LTA” value is on record as “↓↓ (↓↓ = significant decrease ≤5 μM)” and the “LTA neutralization / inhibition of LTA-induced activation, in words” value is recorded as “potently inhibited”. Moreover, in experiment [4], the “Optimal concentration to induce DNA activation” value amounted to 1.25 µM and the “Summary class, TLR activation DNA” value is on record as “↑↑ (↑↑ = significant increase ≤5 μM)”. Moreover, in experiment [5], the “Induction of CCL5 secretion after 24 h stimulation” value is 2–3 fold and the “Summary class, chemokines CCL5 (24 h)” value was “↑ (↑ = significant increase at 20 μM)”. Besides, the “Enhancement of CCL2 secretion” value in experiment [1] (20 μM peptide) is listed as 3–4 fold. Moreover, the “Summary class, chemokines CCL2 (2 h)” value in experiment [1] (peptide 0.08-20 μM) is “↑ (↑ = significant increase at 20 μM)”.
Consider “RRRPRPPYLPRPRPPPFFPPRLPPRIPPGFPPRFPPRFP [PR-39, porcine proline-rich cathelicidin forming a polyproline helix, 39 residues, charge +10]”, for which, in experiment [4], the “Enhancement … in words” value is “able to enhance DNA-induced TLR-9 activation” and the “Summary class, TLR activation DNA” value is “↑ (↑ = significant increase at 20 μM)”. Also, the “Effect on CCL2 secretion after 24 h stimulation, in words” value in experiment [1] (24 h, peptide 0.08-20 μM) was “non-significant”.
On to “RLKELITTGGQKIGEKIRRIGQRIKDFFKNLQPREEKS [Peptide K9CATH, dog cathelicidin, 38 residues, charge +6]”, for which, in experiment [3], the “Increase of CXCL10 secretion” value is given as 2–3 fold and the “Summary class, chemokines CXCL10 (24 h)” value was “↑ (↑ = significant increase at 20 μM)”. In experiment [5], the “Induction of CCL5 secretion after 24 h stimulation” value is on record as 2–3 fold and the “Summary class, chemokines CCL5 (24 h)” value was “↑ (↑ = significant increase at 20 μM)”.
Take “KRRHWFPLSFQEFLEQLRRFRDQLPFP [eCATH-2, equine CATH-2, 27 residues, charge +4]”: in experiment [2], the “Summary class, TLR activation LTA” value is listed as “↓↓ (↓↓ = significant decrease ≤5 μM)” and the “LTA neutralization / inhibition of LTA-induced activation, in words” value is on record as “significantly inhibited”. Besides, in experiment [3], the “Increase of CXCL10 secretion” value was 2–3 fold and the “Summary class, chemokines CXCL10 (24 h)” value is “↑ (↑ = significant increase at 20 μM)”. Further, in experiment [4], the “Enhancement … in words” value was “able to enhance DNA-induced TLR-9 activation” and the “Summary class, TLR activation DNA” value is “↑ (↑ = significant increase at 20 μM)”.
